The values that follow come from ChEMBL document CHEMBL3745652, “Synthesis and evaluation of pretomanid (PA-824) oxazolidinone hybrids” (Bioorg Med Chem Lett, 2016).

SMILES strings stand for the structures. ≈ marks a conversion by molar mass, not a printed value. Calls of active or inactive are those of the source.

The test system of one data set is Vero. Briefly: Cytotoxicity against African green monkey Vero cells by cell titer glo assay. Particulars: Chlorocebus sabaeus. The data set is classed as cell-based.
Data set [1] can be described thus: Half life in mouse liver microsomes. Format: ADME. Particulars: microsomes. In general terms: Liver microsomes are a subcellular fraction often used to study metabolism.
Data set [2] is described as follows: Apparent permeability from apical to basolateral side in human Caco2 cells. Particulars: caco-2. The data set is classed as ADME, cell-based.
A short description of data set [3]: Apparent permeability from basolateral to apical side in human Caco2 cells. The data set is classed as ADME, cell-based. Particulars: caco-2. For orientation: Caco-2 cells form a polarised layer with tight junctions and transporters.
Data set [4] can be described thus: Plasma protein binding in human. Format: ADME, cell-free.
A further data set relates to Mus musculus. Briefly: Toxicity in C57BL/6 mouse at 300 mg/kg, po after 3 days. The data set is classed as organism-based. Particulars: in vivo, 72 h.
The subject of data set [5] is Mycobacterium tuberculosis. Briefly: Antimicrobial activity against Mycobacterium tuberculosis H37Rv infected in C57BL/6 mouse assessed as reduction in bacterial load at 100 mg/kg, po after 28 days. The data set is classed as functional, organism-based.
A short description of data set [6]: AUC(infinity) in C57BL/6 mouse at 10 mg/kg, iv. Also on record: dose 10 mg/kg, time infinity, route intravenous. Particulars: in vivo. Format: ADME, organism-based.
A short description of data set [7]: Half life in C57BL/6 mouse at 10 mg/kg, iv. Particulars: in vivo. The data set is classed as ADME, organism-based.
Data set [8] in a line: Clearance in C57BL/6 mouse at 10 mg/kg, iv. Format: ADME, organism-based. Particulars: in vivo.
The nature of data set [9]: Volume of distribution at steady state in C57BL/6 mouse at 10 mg/kg, iv. The data set is classed as ADME, organism-based. Particulars: in vivo, read-out: Vdss.
The test system of a further data set is Bacillus anthracis. Briefly: Antimicrobial activity against Bacillus anthracis. Format: functional, organism-based.
The test system of the next data set is Bacillus subtilis. Briefly: Antimicrobial activity against Bacillus subtilis. Format: functional, organism-based.
The next data set concerns Enterococcus faecalis. As to the kind of experiment: Antimicrobial activity against Enterococcus faecalis. Format: functional, organism-based.
The test system of a further data set is Staphylococcus aureus. As to the kind of experiment: Antimicrobial activity against Staphylococcus aureus. The data set is classed as functional, organism-based.
In another data set the test system is Streptococcus pyogenes. As to the kind of experiment: Antimicrobial activity against Streptococcus pyogenes. Format: functional, organism-based.
Another data set has as its system Streptococcus pneumoniae. Briefly: Antimicrobial activity against Streptococcus pneumoniae. Format: functional, organism-based.
For another data set, the system named is Acinetobacter baumannii. Briefly: Antimicrobial activity against Acinetobacter baumannii. The data set is classed as functional, organism-based.
The subject of another data set is Escherichia coli. Briefly: Antimicrobial activity against Escherichia coli. Format: functional, organism-based.
The next data set relates to Klebsiella pneumoniae. Briefly: Antimicrobial activity against Klebsiella pneumoniae. The data set is classed as functional, organism-based.
For data set [10], the system named is Mycobacterium tuberculosis. Briefly: Antimicrobial activity against Mycobacterium tuberculosis H37Rv assessed as growth inhibition after 7 days by microbroth dilution method. The data set is classed as functional. Particulars: 168 h. Background: Dilution methods test growth across graded concentrations, often in twofold steps.

What is called IC50 is the point on the concentration scale where inhibition reaches its midpoint. Usually Papp stands for the rate of passage across a membrane or cell layer, normalised by area and donor concentration. What is called AUC(0-inf) is the area under the concentration-time curve extrapolated to infinity. As a reminder, the half-life is the time needed for the level to fall by half in the phase considered. The clearance is the rate of elimination divided by the concentration. For `O=[N+]([O-])c1cn2c(n1)OC[C@@H](OCc1ccc(N3CCOCC3)c(F)c1)C2`, half-maximal inhibition with Vero (IC50) was put at 23.1 mg/L (≈ 61.1 µM). In addition, the t1/2 in [1] came out at 462 min. In addition, the apparent permeability (Papp) was determined as 433.3 nm/s in [2] and 332.8 nm/s in [3]. For the same molecule, the PPB in [4] turned out to be 51.3%. For the same molecule, the Activity entry in the data set on Mus musculus is “Non-toxic”. The outcome (in [5]; in the data set with Bacillus anthracis; with Bacillus subtilis; in the data set on Enterococcus faecalis; in the data set on Staphylococcus aureus; in the data set with Streptococcus pyogenes) was inactive. The result in the data set with Streptococcus pneumoniae, with Acinetobacter baumannii, in the data set with Escherichia coli and in the data set with Klebsiella pneumoniae was inactive. Further, the AUC(0-inf) in [6] was found to be 10.1 µg·h/mL. Moreover, the half-life in [7] is 58.8 min. This molecule yielded a clearance in [8] of 0.99 L/h/kg. Moreover, the Vd in data set [9] came to 1.16 L/kg.

One may read the MIC as the least concentration at which growth counts as inhibited. In turn, `O=C1COCCN1c1ccc(CO[C@@H]2COc3nc([N+](=O)[O-])cn3C2)cc1F` came in with an IC50 in the data set with Vero of over 100 mg/L. The same molecule gave a t1/2 in data set [1] of 792 min. The Papp in [2] is listed as 505.7 nm/s; in data set [3] it was 316.7 nm/s. The PPB in [4] was 67.8%. Also, in the data set on Mus musculus, the Activity result was “Non-toxic”. For the same molecule, the result (in data set [5]; in the data set with Bacillus anthracis; in the data set on Bacillus subtilis; in the data set on Enterococcus faecalis; in the data set on Staphylococcus aureus; with Streptococcus pyogenes) was inactive. The outcome with Streptococcus pneumoniae, with Acinetobacter baumannii, in the data set on Escherichia coli and in the data set on Klebsiella pneumoniae was inactive. In [6], the AUC(0-inf) is 5.18 µg·h/mL. Also, in data set [7], the half-life is 16.8 min. Further, the clearance in [8] amounted to 1.94 L/h/kg. The Vd in data set [9] stood at 0.63 L/kg. The MIC in data set [10] stood at 0.78 mg/L (≈ 1.99 µM).

Molecule `O=C1COCCN1c1ccc(CO[C@@H]2COc3nc([N+](=O)[O-])cn3C2)cc1` came in with an IC50 in the data set with Vero of over 100 mg/L. The molecule further displayed a t1/2 in data set [1] of 1100 min. Besides, the Papp in data set [2] was determined as 400.8 nm/s; in data set [3], 305.6 nm/s. This molecule also yielded a PPB in data set [4] of 50.4%. For the same molecule, the Activity result in the data set on Mus musculus is “Non-toxic”. Further, the outcome (in data set [5]; with Bacillus anthracis; with Bacillus subtilis; in the data set with Enterococcus faecalis; in the data set with Staphylococcus aureus; with Streptococcus pyogenes) was inactive. For the same molecule, the outcome with Streptococcus pneumoniae, in the data set on Acinetobacter baumannii, in the data set on Escherichia coli and with Klebsiella pneumoniae was inactive. This molecule also had an AUC(0-inf) in data set [6] of 7.41 µg·h/mL. The half-life in data set [7] was 28.8 min. For the same molecule, the clearance in data set [8] was determined as 1.35 L/h/kg. The Vd in data set [9] was 0.79 L/kg. Also, the MIC in [10] worked out at 0.78 mg/L (≈ 2.08 µM).

`O=C1CCCCN1c1ccc(CO[C@@H]2COc3nc([N+](=O)[O-])cn3C2)cn1` displayed an IC50 in the data set with Vero of over 100 mg/L. This molecule also came in with a t1/2 in data set [1] of 1220 min. Further, the Papp in data set [2] turned out to be 336.8 nm/s; in [3], 295.6 nm/s. Moreover, the PPB in data set [4] came to 39.6%. Besides, the outcome in the data set with Bacillus anthracis, in the data set on Bacillus subtilis, in the data set with Enterococcus faecalis, in the data set on Staphylococcus aureus, in the data set on Streptococcus pyogenes and in the data set on Streptococcus pneumoniae was inactive. Besides, the result in the data set on Acinetobacter baumannii, in the data set on Escherichia coli and in the data set on Klebsiella pneumoniae was inactive. Moreover, the MIC in data set [10] was determined as 3.13 mg/L (≈ 8.38 µM).

In the data set on Vero, `O=C1CCCCN1c1ccc(CO[C@@H]2COc3nc([N+](=O)[O-])cn3C2)cc1` showed an IC50 of over 100 mg/L. In data set [1], this molecule had a t1/2 of 402 min. Besides, the Papp is reported as 472.5 nm/s in data set [2] and 342 nm/s in [3]. The PPB in data set [4] stood at 66.4%. Also, the outcome in the data set with Bacillus anthracis, with Bacillus subtilis, in the data set on Enterococcus faecalis, in the data set with Staphylococcus aureus, with Streptococcus pyogenes and in the data set with Streptococcus pneumoniae was inactive. The result in the data set on Acinetobacter baumannii, with Escherichia coli and in the data set with Klebsiella pneumoniae was inactive. Further, the MIC in data set [10] was determined as 1.56 mg/L (≈ 4.19 µM).

`O=[N+]([O-])c1cn2c(n1)OC[C@@H](OCc1ccc(N3CCSCC3)cc1)C2`: in the data set with Vero, the IC50 turned out to be 13.7 mg/L (≈ 36.4 µM). Further, the t1/2 in [1] was 4.2 min. Further, the apparent permeability (Papp) is listed as 266.8 nm/s in [2] and 261.3 nm/s in data set [3]. The same molecule gave a PPB in [4] of 74.5%. The outcome in the data set with Bacillus anthracis, in the data set with Bacillus subtilis, in the data set on Enterococcus faecalis, in the data set on Staphylococcus aureus, in the data set on Streptococcus pyogenes and with Streptococcus pneumoniae was inactive. Besides, the outcome in the data set with Acinetobacter baumannii, in the data set with Escherichia coli and in the data set with Klebsiella pneumoniae was inactive. Also, in [10], the MIC was 6.25 mg/L (≈ 16.6 µM).
